In ChEMBL document CHEMBL1130848, “Synthesis and preliminary evaluation of (S)-2-(4'-carboxycubyl)glycine, a new selective mGluR1 antagonist” (Bioorg Med Chem Lett, 1998) one finds EC50 and IC50 data, which are given here for one molecule.

Test [1] addresses Metabotropic glutamate receptor 2 (Homo sapiens, UniProt Q14416). Kind of test: Concentration required to inhibit mGluR2 receptor.
Test [2] concerns the target Metabotropic glutamate receptor 1 (Homo sapiens, UniProt Q13255). The test is described as follows: Inhibitory activity against mGluR1 receptor.

Sequence of Metabotropic glutamate receptor 1 (Q13255 whole entry): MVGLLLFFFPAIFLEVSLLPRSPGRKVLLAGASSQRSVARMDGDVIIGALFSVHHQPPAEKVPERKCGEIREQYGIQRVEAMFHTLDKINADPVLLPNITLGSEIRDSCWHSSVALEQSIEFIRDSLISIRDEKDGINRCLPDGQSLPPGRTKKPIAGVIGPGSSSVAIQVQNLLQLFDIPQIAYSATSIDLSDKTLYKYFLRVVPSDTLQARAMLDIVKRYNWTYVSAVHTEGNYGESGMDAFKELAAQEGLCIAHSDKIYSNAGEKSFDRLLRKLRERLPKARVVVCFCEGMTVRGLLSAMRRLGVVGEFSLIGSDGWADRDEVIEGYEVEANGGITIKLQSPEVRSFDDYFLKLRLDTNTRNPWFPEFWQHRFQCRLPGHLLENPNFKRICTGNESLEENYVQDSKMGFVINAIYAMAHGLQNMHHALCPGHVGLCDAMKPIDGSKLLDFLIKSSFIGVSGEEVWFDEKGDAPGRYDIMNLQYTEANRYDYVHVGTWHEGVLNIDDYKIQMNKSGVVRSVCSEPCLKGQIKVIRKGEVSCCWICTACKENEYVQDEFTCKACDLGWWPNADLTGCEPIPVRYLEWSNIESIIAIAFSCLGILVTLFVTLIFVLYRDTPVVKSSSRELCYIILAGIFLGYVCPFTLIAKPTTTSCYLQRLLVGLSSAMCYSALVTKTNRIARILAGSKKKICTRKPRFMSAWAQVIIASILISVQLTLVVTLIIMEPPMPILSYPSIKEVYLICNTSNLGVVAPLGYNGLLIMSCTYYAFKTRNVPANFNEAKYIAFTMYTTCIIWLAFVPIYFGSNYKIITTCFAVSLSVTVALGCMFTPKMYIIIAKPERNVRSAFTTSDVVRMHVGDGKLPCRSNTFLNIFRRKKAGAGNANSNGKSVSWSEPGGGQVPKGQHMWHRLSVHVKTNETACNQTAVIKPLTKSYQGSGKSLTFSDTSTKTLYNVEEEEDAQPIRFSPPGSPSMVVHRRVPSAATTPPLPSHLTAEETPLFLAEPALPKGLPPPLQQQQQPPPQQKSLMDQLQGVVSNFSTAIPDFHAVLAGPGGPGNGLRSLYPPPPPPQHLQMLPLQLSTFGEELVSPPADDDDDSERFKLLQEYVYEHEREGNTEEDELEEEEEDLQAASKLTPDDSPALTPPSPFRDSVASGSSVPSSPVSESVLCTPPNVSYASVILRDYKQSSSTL
Sequence of Metabotropic glutamate receptor 2 (Q14416 whole entry): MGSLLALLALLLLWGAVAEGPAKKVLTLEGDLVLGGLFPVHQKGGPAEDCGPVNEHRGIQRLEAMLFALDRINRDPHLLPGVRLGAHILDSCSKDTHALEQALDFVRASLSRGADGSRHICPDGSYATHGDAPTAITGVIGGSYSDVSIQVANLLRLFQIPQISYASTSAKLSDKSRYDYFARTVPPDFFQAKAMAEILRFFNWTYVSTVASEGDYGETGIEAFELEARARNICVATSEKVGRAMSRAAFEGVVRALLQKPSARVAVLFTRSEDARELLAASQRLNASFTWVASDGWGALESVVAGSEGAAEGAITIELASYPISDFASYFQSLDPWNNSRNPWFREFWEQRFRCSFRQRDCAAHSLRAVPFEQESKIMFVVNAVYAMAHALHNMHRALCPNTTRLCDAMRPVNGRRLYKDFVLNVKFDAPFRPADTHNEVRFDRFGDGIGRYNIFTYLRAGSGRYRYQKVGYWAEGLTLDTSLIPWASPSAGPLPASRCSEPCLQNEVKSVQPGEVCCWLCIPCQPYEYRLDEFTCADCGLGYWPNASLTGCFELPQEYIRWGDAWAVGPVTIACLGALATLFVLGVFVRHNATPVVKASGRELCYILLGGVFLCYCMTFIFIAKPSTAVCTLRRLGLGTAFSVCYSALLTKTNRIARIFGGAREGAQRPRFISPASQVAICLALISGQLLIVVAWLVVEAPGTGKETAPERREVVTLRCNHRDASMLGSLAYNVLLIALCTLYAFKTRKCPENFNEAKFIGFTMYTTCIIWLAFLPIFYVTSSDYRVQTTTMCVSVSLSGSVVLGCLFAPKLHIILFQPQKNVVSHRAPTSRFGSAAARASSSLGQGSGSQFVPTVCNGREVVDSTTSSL

For `N[C@H](C(=O)O)C12C3C4C1C1C2C3C41C(=O)O` (some centres not stated), the EC50 (usually the concentration needed to bring the measured effect to its halfway point) in test [1] stood at 54.9 µM. Moreover, in test [2], 232 µM corresponded to half-maximal inhibition (IC50).
